According to patent publication US9828351B2, “Enzyme interacting agents” (MONASH UNIVERSITY, priority 2014, dated 2017):

Key:
recombinant human SphK2 = target: T1, recombinant human SphK2 (Homo sapiens, UniProt Q9NRA0); experiment: SphK2 activity assay (32P-labelled S1P production); assay type: biochemical; details: 10 μM compound, % of activity compared to control (DMSO vehicle only); for remaining activity at 10 µM: read-out: SphK2% actvity at 10 μm
T1 construct: purchased Johnson and Johnson
T1 sequence (Q9NRA0 1-654): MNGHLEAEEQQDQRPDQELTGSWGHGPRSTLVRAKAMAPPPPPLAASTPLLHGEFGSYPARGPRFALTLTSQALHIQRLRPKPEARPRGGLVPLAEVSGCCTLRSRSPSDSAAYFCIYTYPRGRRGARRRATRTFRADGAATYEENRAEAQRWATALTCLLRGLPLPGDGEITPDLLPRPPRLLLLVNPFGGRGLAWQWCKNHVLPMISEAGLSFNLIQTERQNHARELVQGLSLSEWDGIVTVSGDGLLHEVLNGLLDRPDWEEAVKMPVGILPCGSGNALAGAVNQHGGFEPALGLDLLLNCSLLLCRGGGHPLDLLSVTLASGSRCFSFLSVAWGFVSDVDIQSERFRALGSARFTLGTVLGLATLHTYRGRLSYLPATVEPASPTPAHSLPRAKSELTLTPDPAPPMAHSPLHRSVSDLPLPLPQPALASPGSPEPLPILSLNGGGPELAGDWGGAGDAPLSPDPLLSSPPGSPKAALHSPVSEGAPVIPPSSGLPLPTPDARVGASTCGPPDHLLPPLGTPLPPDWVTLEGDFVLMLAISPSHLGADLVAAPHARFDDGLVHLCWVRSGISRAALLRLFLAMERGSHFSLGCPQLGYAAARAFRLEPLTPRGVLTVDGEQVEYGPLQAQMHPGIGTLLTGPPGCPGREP
Procedure: (§1) The SphK assays employed, measure SphK activity through the production of ^32P-labelled S1P following the addition of exogenous Sph and [γ^32P] ATP.
(§2) Activities of SphK1 and SphK2 were determined using identical assay conditions with the exception that SphK1 assays used 3 ng/assay recombinant his tagged human SphK1 (made in the lab in a baculovirus system using insect cells), while SphK2 assays used 30 ng/assay recombinant human SphK2 (purchased by Johnson and Johnson).
(§3) Compounds were dissolved in DMSO at 10 mM, the mixture was vortexed (and sonicated if necessary). Stock solutions were kept at 4° C. until used.
(§4) Aliquots were made containing 100 μM drug compound. These aliquots were then diluted in assay buffer: 100 mM tris/HCl pH 7.4, 100 mM NaCl, 1 mM sodium orthovanadate, 10 mM NaF to make up a 10 μM solution.
(§5) Recombinant enzyme was diluted in assay buffer (above) to make up a final concentration of 0.03 ng/μL (SphK1) or 0.33 ng/μL (SphK2).
(§6) 40 μL recombinant enzyme was added to an Eppendorf® Safe-Lock® microcentrifuge tube. This was followed by the addition of drug compound from prepared aliquots, before adding ATP, [γ^32P]ATP and Sph. Note: ATP stock is made up in 1M Tris pH 7.4 and 200 mM MgCl2. This allows ATP to complex with Mg and be available as a substrate.
(§7) The rest of the reaction mixture was then added to the enzyme sample (Table 1). All reactions were performed as triplicates.
(§8) Reaction mixture was prepared with sufficient volume to assay all of the required samples. To do this, each of the volumes shown was multiplied by n+1, where n is the number of samples to be assayed. Assay buffer used is made up of 100 mM tris/HCl pH 7.4, 100 mM NaCl, 1 mM sodium orthovanadate and 10 mM NaF.
(§9) The mixture was then incubated at 37° C. for 20 min (SphK1)/45 min (SphK2).
(§10) To the 100 μL assay mixture, add 270 μl of chloroform/methanol/conc. HCl (100:200:1).
(§11) 20 μL of 5 M KCl was then added to the assay mixture.
(§12) 70 μL of chloroform was added to create phase separation. The solution was vortexed to mix well.
(§13) The solution was then centrifuged for 5 min at 13,000×g to fully separate the phases.
(§14) The upper aqueous/methanol phase was separated by aspiration.
(§15) 50 μL of the remaining lower chloroform phase […] was applied onto the TLC plate by repeatedly spotting a few microliters of liquid (<5 mm diameter circle) between each sample spot with the pipette tip. The liquid was then allowed to absorb into the plate before drying with a stream of air.
(§16) The TLC plate was developed in a glass TLC developing tank with 1-butanol/ethanol/glacial acetic acid/H2O (8:2:1:2) until the mobile phase is within 1 cm of the top of the TLC plate.
(§17) The TLC plate was then exposed to a storage phosphor screen overnight. Storage phosphor screens work by capturing images produced by ionising radiation (e.g. ^32P). The phosphorimager stimulates the screen which uses lasers to convert the latent signal to light. Light is proportional to the amount of radioactivity in the sample. The image is then quantified using standard quantification software (ImageQuant™). Whatman paper with the assay mixture dilutions, was included to assist quantification of the phosphor signal.
(§18) Once the storage phosphor screen was read using the phosphorimager, S1P spots, which have an Rf of 0.7 with the mobile phase employed, were quantified.
(§19) The S1P spot intensity can be converted to the amount of phosphate transferred/min/mg protein.

[1] = target: T2, recombinant his tagged human SphK1 (Homo sapiens, UniProt Q9NYA1); experiment: SphK1 activity assay (32P-labelled S1P production); assay type: biochemical; details: 10 μM compound; % of activity compared to control (DMSO vehicle only)
T2 construct: His tag; made in house; host or cells: insect cells (baculovirus system)
Procedure: as §1, §2, §3, §4, §5, §6, §7, §8, §9, §10, §11, §12, §13, §14, §15, §16, §17, §18, §19

[2] = target: T3, SphK1a in Flpln-SphK1a cells (Flp-In T-Rex HEK293) (Homo sapiens, UniProt Q9NYA1); experiment: SphK1 proteasomal degradation study (immunoblotting); assay type: cell-based; details: 10 μM test compound, 24 h
T3 construct: expressed in transfected cells; host or cells: Flp-In T-Rex HEK293 cells, doxycycline-induced
Procedure: These studies were performed as previously described for the drug SKI-II (C. Loveridge et al. J. Biol. Chem. 2010, 285, 38891). […] After 24 h cells were treated with 10 μm test compound, 10 μm MG132, or both. DMSO was used as the vehicle control. After a further 24 h, cells were harvested, lysed, and subjected to SDS-PAGE and immunoblotting with anti-FLAG (Sigma), anti-ERK1/2 (Promega), or anti-a-tubulin (Abcam) antibodies.

[3] = test system: PC3 prostate cancer cell lines; experiment: Anticancer activity in PC3 cell line, CellTitre AQueous One cell viability assay; assay type: cell-based; details: concentration required to inhibit cell proliferation by 50%, 72 hours
Procedure: Measurement of Anticancer Activity in PC3 Cell Line Assays
PC3 prostate cancer cell lines were cultured in DMEM (containing 10% fetal calf serum and penicillin-streptomycin).
Before treatment with drug compounds, cells were plated at 2,500 cells/well in 96 well plates and incubated at 37° C. with 5% CO2 in a humidified incubator for 24 hours prior. Cells were only plated in columns 3-10 and rows C—F to ensure uniform humidity and warmth across all wells. The remaining wells were filled with 100 μL of phosphate buffered saline.
Drug stock solutions (50 or 10 mM) were diluted×1000 in media to a final concentration of either 50 μM or 10 μM with a DMSO vehicle concentration of 0.1%.
Cell culture supernatants were aspirated and replaced with drug containing media. Drug treatments were performed in duplicate wells, while potential plate layout-specific variation in cell growth was accounted for by addition of a vehicle control (0.1% DMSO).
Cells were then incubated with drug compounds at 37° C. with 5% CO2 in a humidified incubator for 72 hours prior to assay.
Media was diluted with CellTitre AQueous One Solution (Promega, Australia; Cat # G3580) according to manufacturer's instructions to produce a final concentration of 317 μg/mL.
Cell culture supernatants were then aspirated from wells and replaced with 100 μL of CellTitre solution. Triplicate cell-free control wells containing only CellTitre solution were also included in each assay.
Cells were then incubated at 37° C. with 5% CO2 in a humidified incubator for 1 hour at which time absorbance was read at 490 nm with an EnVision microplate reader (Perkin Elmer, Australia).
When analysing data, background absorbance (taken from cell-free control wells) was subtracted from each reading. […] For each drug concentration the mean (±SEM) is calculated and graphed using GraphPad Prism (version 5). A sigmoidal curved is fitted to the data and used to calculate the IC50 of each compound.

[4] = target: T4, Dihydroceramide Desaturase-1 (Des1) (Homo sapiens, UniProt O15121); experiment: Dihydroceramide desaturase-1 (Des1) activity by HPLC in intact Jurkat cells labeled with DhCer-C6-NBD; assay type: cell-based; details: intact Jurkat cells; for IC50: read-out: Des 1 IC50
T4 construct: These modifications included the use of parental Jurkat cells; endogenous in cells; host or cells: parental Jurkat cells
T4 sequence (O15121 1-323): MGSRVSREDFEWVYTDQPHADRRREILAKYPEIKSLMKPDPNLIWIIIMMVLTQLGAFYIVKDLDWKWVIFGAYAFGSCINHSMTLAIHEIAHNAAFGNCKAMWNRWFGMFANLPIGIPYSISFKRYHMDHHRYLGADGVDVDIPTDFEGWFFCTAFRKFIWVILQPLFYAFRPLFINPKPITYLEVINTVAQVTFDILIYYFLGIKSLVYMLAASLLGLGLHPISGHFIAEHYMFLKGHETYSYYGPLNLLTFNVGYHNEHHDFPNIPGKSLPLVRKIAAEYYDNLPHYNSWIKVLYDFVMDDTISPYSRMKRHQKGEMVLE
Procedure: Measurement of Dihydroceramide Desaturase-1 (Des1) Activity:
These modifications included the use of parental Jurkat cells, 0.5% serum in the culture media, and cell harvesting via centrifugation at 500×g to maximise ceramide extraction. Extracted samples (50 ul) were analysed on a Waters HPLC coupled to a fluorescence detector using a 30 cm C18 reverse-phase column eluted with 1 ml/min 20% H2O and 80% acetonitrile, both with a 0.1% of trifluoroacetic acid.

[5] = test system: Neonatal cardiac fibroblasts (NCFs) collagen synthesis; experiment: Inhibition of NCF collagen synthesis by 3H-proline incorporation; assay type: cell-based
Procedure: Neonatal cardiac fibroblasts (NCFs) were isolated as previously reported (Lekawanvijit, S. Wang, B. H., Krum, H. Eur Heart J. 2010, 31(14), 1771-9). After isolation, NCF (passage 0) were placed into T75 cell culture flasks (BD Falcon, NSW, Australia) and maintained in high-glucose (25 mM) DMEM containing 5.33 mM KCl (Invitrogen, Mount Waverley, Vic, Australia) in the presence of 1% antibiotic/antimycotic (Invitrogen, Mount Waverley, Vic, Australia) and 10% fetal bovine serum (FBS) (JRH biosciences). Cells were incubated at 37° C. with 5% CO2 for overnight and then the media were changed. NCF confluence was checked microscopically and NCF were sub-cultured. After removing media and 3× wash with warm 1×PBS, 2 ml of warm 0.05% trypsin-EDTA was added to each flask. Flasks were placed back into the 37° C. incubator for 1-2 minutes to allow cells to lift off the surface of the flasks. Trypsin was inactivated by adding 8 ml of DMEM containing 10% FBS. NCF (passage 1) were centrifuged for 6 minutes at 1300 rpm at RT. Cell pellets was washed 3× with DMEM+10% FBS and resuspended in DMEM+10% FBS. Cells were then placed into new flasks and incubated at 37° C. with 5% CO2 for 48 hours.
To seed NCF, steps from trypsinization to resuspension were repeated as above. NCF (passage 2) were counted with the ‘Countess’ cell counter. […]

MCF7 breast cancer cells = experiment: Anticancer activity in MCF7 cell lines, MTS assay; assay type: cell-based; details: Homo sapiens, concentration required to inhibit cell proliferation by 50%, 72 hrs, read-out: MCF-7 IC50
Procedure: Measurement of Anticancer Activity in MCF7 Cell Lines
MCF7 breast cancer cells were treated with the test compounds and incubated at 37° C., 5% CO2 in air for 72 hrs. The MTS assay was conducted with addition of prepared MTS solution followed by 2 hr incubation, an OD reading and the raw data recorded. The data was managed in tabular form, values adjusted for vehicle control, and the adjusted values graphed as a sigmoidal curve and the EC50 value calculated.

T2 sequence (Q9NYA1 whole entry): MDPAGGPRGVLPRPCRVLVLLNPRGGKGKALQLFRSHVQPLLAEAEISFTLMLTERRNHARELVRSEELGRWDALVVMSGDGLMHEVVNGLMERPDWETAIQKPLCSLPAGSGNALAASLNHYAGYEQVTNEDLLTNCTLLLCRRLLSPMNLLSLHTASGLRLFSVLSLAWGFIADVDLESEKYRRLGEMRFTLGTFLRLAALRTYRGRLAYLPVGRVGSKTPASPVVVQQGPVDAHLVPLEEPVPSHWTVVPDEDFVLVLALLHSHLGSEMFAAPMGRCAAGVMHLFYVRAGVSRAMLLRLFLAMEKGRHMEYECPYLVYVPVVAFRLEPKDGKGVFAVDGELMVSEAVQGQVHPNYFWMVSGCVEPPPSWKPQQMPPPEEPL
T3 sequence (Q9NYA1 whole entry): as above

## 3-(4-(5-(4-Chlorophenyl)-1,3,4-oxadiazol-2-yl)phenyl)-1,2,4-oxadiazol-5(4H)-one [Example E-15]
Recombinant human SphK2
  SphK2% actvity at 10 μm: 80-100%
[1]
  SphK1% activity at 10 μm: 50-80%
[2]
  % SphK1a degradation at 10 μM: 50%
[3]
  IC50: 0.1 to 1 µM

## Clc1ccc(-c2nnc(Nc3ccc(-c4nn[nH]n4)cc3)o2)cc1 [Example E-27, 5-(4-Chlorophenyl)-N-[4-(1H-tetrazol-5-yl)phenyl]-1,3,4-oxadiazol-2-amine]
[4]
  Des 1 IC50: inactive
Recombinant human SphK2
  remaining activity at 10 µM: 50 to 80%
[1]
  activity at 10 µM: 20 to 50%
[3]; Homo sapiens, PC-3
  IC50: 10 to 100 µM

## (Z)-4-(5-(4-Chlorophenyl)-1,3,4-oxadiazol-2-yl)-N′-hydroxybenzimidamide [Example E-14]
[5]
  EC (effective concentration: concentration required to reduce collagen synthesis to a level equal to or below unstimulated control): 0.5 to 5 µM
Recombinant human SphK2
  SphK2% actvity at 10 μm: 80-100%
[1]
  SphK1% activity at 10 μm: 100-150%
[3]
  IC50: > 100 µM

## Oc1ccc(Nc2nnc(-c3ccccc3)o2)cc1 [Example E-25, 4-((5-Phenyl-1,3,4-oxadiazol-2-yl)amino)phenol]
[4]
  IC50: 1 to 10 µM
other
  melting point: 231 °C

## O=S1NC(c2ccc(Nc3nnc(-c4ccc(Cl)cc4)o3)cc2)=NO1 (centres unmarked) [Example E-28, 5-(4-Chlorophenyl)-N-[4-(2-oxido-3H-1,2,3,5-oxathiadiazol-4-yl)phenyl]-1,3,4-oxadiazol-2-amine]
[4]
  IC50: 1 to 10 µM
Recombinant human SphK2
  remaining activity at 10 µM: 5 to 20%
[1]
  activity at 10 µM: < 1%
[3]; Homo sapiens, PC-3
  IC50: 10 to 100 µM

## O=C(Nc1ccc(O)cc1)c1nc(-c2ccc(Cl)cc2)cs1 [Example E-5, 4-(4-Chlorophenyl)-N-(4-hydroxyphenyl)thiazole-2-carboxamide]
MCF7 breast cancer cells
  IC50: 10 to 100 µM
[3]; Homo sapiens, PC-3
  IC50: 10 to 100 µM
